Patent US20170311608A1, “BACILLUS THURINGIENSIS SUBSP. AIZAWAI AND CYANTRANILIPROLE MIXTURES FOR DIAMONDBACK MOTH, CABBAGE LOOPER, BEET ARMYWORM, SOYBEAN LOOPER, CORN EARWORM, SOUTHWESTERN CORN BORER AND SUGARCANE BORER CONTROL” (priority 2016, published 2017)
Read-outs that look alike come from different tables or passages of the source.

Key:
beet armyworm larvae = assay: Leaf dip test, beet armyworm larvae; assay type: in vivo; conditions: Spodoptera exigua, foliar, Bta 2.7 ppm, cyantraniliprole 1.0 ppm, mixture 2.7 ppm + 1.0 ppm, read-out: % Efficacy
Experimental: (§1) The present invention is not limited to the products or formulation types used herein. In each example below, the studies were conducted as follows.
(§2) For these tests, standardized laboratory leaf dip methods were used to inoculate plant material with treatment(s). Dry, treated leaves were placed into Petri dishes (100×25 mm) containing filter paper wetted with 500 μl of distilled H2O (“dH2O”). Each dish was then infested with between 5 and 10 larvae, dependent on species. Efficacy ratings were taken at specified intervals. Synergy ratings were calculated for each test.
(§3) % Cexp=A+B−(AB/100), where % Cexp is the expected efficacy and “in which A and B are the control levels given by the single [insecticides]. […] Adopting a conservative approach, Applicant determined synergy to be present at ratios of >1.15.

corn earworm larvae = assay: Leaf dip test, corn earworm larvae; assay type: in vivo; conditions: Helicoverpa zea, foliar, Bta 27 ppm, cyantraniliprole 10.0 ppm, mixture 27 ppm + 10.0 ppm, read-out: % Efficacy
Experimental: as §1, §2, §3

diamondback moth larvae = assay: Leaf dip test, diamondback moth larvae; assay type: in vivo; conditions: Plutella xylostella, foliar, Bta 2.7 ppm, cyantraniliprole 0.1 ppm, mixture 2.7 ppm + 0.1 ppm, read-out: % Efficacy
Source text: The following examples illustrate the effectiveness of Bacillus thuringiensis subsp. aizawai and cyantraniliprole when controlling diamondback moth, cabbage looper, beet armyworm, soybean looper, corn earworm, southwestern corn borer and sugarcane borer. Xentari® was used as the source of Bacillus thuringiensis subsp. aizawai and Exirel® was used as the source of cyantraniliprole. The present invention is not limited to the products or formulation types used herein. In each example below, the studies were conducted as follows.
For these tests, standardized laboratory leaf dip methods were used to inoculate plant material with treatment(s). […] Synergy ratings were calculated for each test. […]
% Cexp=A+B−(AB/100), where % Cexp is the expected efficacy and “in which A and B are the control levels given by the single [insecticides]. […] Adopting a conservative approach, Applicant determined synergy to be present at ratios of >1.15. […]
In order to determine synergy, rates below normal field rate ranges must be used. If normal field rate ranges are used, all of the larvae would die (combining a lethal or near lethal dose of Bacillus thuringiensis subsp. aizawai with a lethal dose of cyantraniliprole would most likely lead to larvae death) in every treatment and synergy would not be able to be determined. […]

soybean looper larvae = assay: Leaf dip test, soybean looper larvae; assay type: in vivo, Chrysodeixis includens; conditions: foliar, Bta 27 ppm, cyantraniliprole 1.0 ppm, mixture 27 ppm + 1.0 ppm, read-out: % Efficacy
Experimental: as §1, §2, §3

[1] = tested on: southwestern corn borer larvae; assay: Leaf dip test, southwestern corn borer larvae; assay type: in vivo, Diatraea grandiosella; conditions: foliar, Bta 2.7 ppm, cyantraniliprole 0.1 ppm, mixture 2.7 ppm + 0.1 ppm, read-out: % Efficacy
Experimental: as §1, §2, §3

sugarcane borer larvae = assay: Leaf dip test, sugarcane borer larvae; assay type: in vivo; conditions: Diatraea saccharalis, foliar, Bta 2.7 ppm, cyantraniliprole 1.0 ppm, mixture 2.7 ppm + 1.0 ppm, read-out: % Efficacy
Experimental: as §1, §2, §3

cabbage looper larvae = assay: Leaf dip test, cabbage looper larvae; assay type: in vivo; conditions: Trichoplusia ni, foliar, Bta 2.7 ppm, cyantraniliprole 0.50 ppm, mixture 2.7 ppm + 0.50 ppm, read-out: % Efficacy
Experimental: as §1, §2, §3

SMILES: CNC(=O)c1cc(C#N)cc(C)c1NC(=O)c1cc(Br)nn1-c1ncccc1Cl [Cyantraniliprole, 3-Bromo-1-(3-chloro-2-pyridinyl)-N-[4-cyano-2-methyl-6-(methylcarbamoyl)phenyl]-1H-pyrazole-5-carboxamide]
- Emax at 1 ppm (beet armyworm larvae; 24 h after treatment): 22%
- Emax at 1 ppm (beet armyworm larvae; 48 h after treatment): 36%
- Emax at 10 ppm (corn earworm larvae; 24 h after treatment): 49%
- Emax at 10 ppm (corn earworm larvae; 48 h after treatment): 51%
- Emax at 0.1 ppm (diamondback moth larvae; 24 h after treatment): 34%
- Emax at 0.1 ppm (diamondback moth larvae; 48 h after treatment): 60%
- Emax at 1 ppm (soybean looper larvae; 24 h after treatment): 4%
- Emax at 1 ppm (soybean looper larvae; 48 h after treatment): 25%
- Emax at 0.1 ppm ([1]; 24 h after treatment): 17%
- Emax at 0.1 ppm ([1]; 48 h after treatment): 24%
- Emax at 1 ppm (sugarcane borer larvae; 24 h after treatment): 42%
- Emax at 1 ppm (sugarcane borer larvae; 48 h after treatment): 42%
- Emax at 0.5 ppm (cabbage looper larvae; 24 h after treatment): 18%
- Emax at 0.5 ppm (cabbage looper larvae; 48 h after treatment): 38%
